The text below walks through data of article PMC4339681, “2- and 3-substituted imidazo[1,2-a]pyrazines as inhibitors of bacterial type IV secretion” (Bioorganic & Medicinal Chemistry, 2014).

A value given as a limit tells only on which side of the number the result lay.

T1 sequence (Q7BK04 entry or part of it): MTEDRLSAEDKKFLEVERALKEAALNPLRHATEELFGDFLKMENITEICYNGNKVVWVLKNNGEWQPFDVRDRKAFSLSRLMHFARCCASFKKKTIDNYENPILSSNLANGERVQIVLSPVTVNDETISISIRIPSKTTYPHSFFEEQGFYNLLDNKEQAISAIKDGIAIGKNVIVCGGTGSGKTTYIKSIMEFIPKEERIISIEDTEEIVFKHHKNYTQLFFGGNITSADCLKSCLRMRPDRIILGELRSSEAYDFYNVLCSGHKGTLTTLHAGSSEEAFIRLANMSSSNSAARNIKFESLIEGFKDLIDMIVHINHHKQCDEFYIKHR

One test has as its target T1, VirB11 ATPase HP0525 (Helicobacter pylori, UniProt Q7BK04). The experiment in a line: colorimetric in vitro ATPase assay (release of inorganic phosphate), IC50 estimation. It counts as biochemical.
Settings: not given
As to the method:
The HP0525 protein was produced recombinantly in Escherichia coli and purified to high purity as described previously.[10] The ATPase activity of HP0525 was measured by monitoring the release of inorganic phosphate (Pi) using an in vitro ATPase assay (see Section 4 and SI). Initially, the inhibitory effects of the compounds were evaluated by performing the ATPase assay with and without compound present at concentrations of 500 μM (or 250 μM), 50 μM and 5 μM (data not shown). The compounds with inhibitory activities were further analyzed for dose-dependency by estimating their IC50s (Fig. 2).
(§1) Assays for the activity of the HP0525 inhibitors were performed using a colorimetric ATPase assay (Innova Biosciences), see SI for details. The enzymatic reactions were performed in 96-well format for 30 min at 37 °C followed by measuring the absorbance at 620 nm, detecting the presence of inorganic phosphate product. […] Michaelis–Menten kinetics were performed under the same conditions as above but with various concentrations of ATP ranging from 0 to 500 μM, with and without 10 μM of compound 11. Both IC50 and Michaelis–Menten kinetics measurements were made in triplicate.
ATPase activity measurements were carried out using a colorimetric in vitro ATPase assay kit (Innova Biosciences), using 96-well ELISA microplates (Greiner Bio-One) with reaction volumes of 100 µL in each well. Multi-pipettes with either 8 tips or 96 tips were used. Enzymatic reactions were performed for 30 min at 37 °C followed by measuring the absorbance at 620 nm, detecting the presence of inorganic phosphate product. Each reaction contained 100 mM Tris–HCl, pH 7.5; 2.5 mM MgCl2; 125 μM ATP; 5% DMSO; 25 mM NaCl; 0.5 mM DTT and 0.053 μM HP0525, with or without inhibitor. In detail, the assay can be described in steps. Step 1: 48 μL of substrate buffer mix (providing the components Tris–HCl, pH 7.5; MgCl2; ATP and DMSO) was dispensed to each well. Step 2: 2 μL of compound (solublized in DMSO) was added to corresponding well. Step 3: Enzymatic reaction was started by the addition of 50 μL of protein (in 50 mM Tris-HCl, pH 7.5; 50 mM NaCl and 1 mM DTT) to the wells. Step 4: Reaction plates were incubated at 37 degrees for 30 min. Step 5: The reaction was stopped by the addition of 25 uL of Gold mix reagent, followed by vigorous mixing. After 2-5 min, 10 uL of stabilizer solution was added to the reaction. Step 6: After an additional 30 min incubation at room temperature, the absorbance at 620 nm was measured using a microplate reader.
In the negative control, the protein was added after the Gold mix, as described in the standard protocol of the Innova Biociences ATPase assay kit. As an alternative negative control, providing equivalent readouts, 10 mM EDTA could also be added at Step 2, then removing the catalytically essential Mg ions from the active site of HP0525.
(§2) Michaelis-Menten kinetics were performed under the same conditions as above but with various concentrations of ATP ranging from 0 to 500 μM, with and without 10 μM of compound 11. Negative controls for each ATP concentration were used. GraphPad Prism version 5.0d for Mac OS X (GraphPad Software, San Diego California USA, www.graphpad.com) was used for the IC50 calculations using the Prism equation for non-linear normalized dose-response ‘Log(Inhibitor) vs. normalized response’ with Hill slope set to 1; and for Michaelis-Menten and Lineweaver-Burk analysis.
Broadly, the IC50 is the concentration at which inhibition is half-maximal. As for `CS(=O)(=O)Nc1ccc(Nc2nccn3cc(-c4ccc5ccccc5c4)nc23)cc1` [Compound 27, N-(4-(2-(Naphthalen-2-yl)imidazo[1,2-a]pyrazin-8-ylamino)phenyl)methanesulfonamide], the half-maximal inhibitory concentration (IC50) was 61 ± 28 µM.
On the same count and under the same terms, as for `O=S(=O)(Nc1cccc(Nc2nccn3cc(-c4ccc5ccccc5c4)nc23)c1)c1cccc2cccnc12` [Compound 34, N-(3-((2-(Naphthalen-2-yl)imidazo[1,2-a]pyrazin-8-yl)amino)phenyl)quinoline-8-sulfonamide], the figure is 7 ± 2 µM.
Same read-out and setting: as for `Nc1nccn2cc(-c3ccc4ccccc4c3)nc12` [Compound 25, 2-(Naphthalen-2-yl)imidazo[1,2-a]pyrazin-8-amine], the figure is above 1000 µM; as for `COc1ccc(-c2cn3ccnc(NS(=O)(=O)c4ccc(C)cc4)c3n2)cc1OC` [Compound 9, N-[2-(3,4-dimethoxylphenyl)imidazo[1,2-a]pyrazine-8-yl]-4-methyl-benzenesulfonamide], 167 ± 43 µM; as for `O=S(=O)(Nc1ccc(Nc2nccn3cc(-c4ccc5ccccc5c4)nc23)cc1)c1cccc2cccnc12` [Compound 33, N-(4-((2-(Naphthalen-2-yl)imidazo[1,2-a]pyrazin-8-yl)amino)phenyl)quinoline-8-sulfonamide], 7 ± 2 µM.
On the same count and under the same terms, as for `Cc1ccc(S(=O)(=O)Nc2ccc(Nc3nccn4ccnc34)cc2)cc1` [Compound 35, N-(4-(Imidazo[1,2-a]pyrazin-8-ylamino)phenyl)-4-methylbenzenesulfonamide], the figure is above 1000 µM; as for `Cc1ccc(S(=O)(=O)Nc2ccc(Oc3nccn4cc(-c5ccc6ccccc6c5)nc34)cc2)cc1` [Compound 28, 4-Methyl-N-(4-(2-(naphthalen-2-yl)imidazo[1,2-a]pyrazin-8-yloxy)phenyl)benzenesulfonamide], 29 ± 9 µM.
As to `COc1ccc(-c2cnc3c(NS(=O)(=O)c4ccc(C)cc4)nccn23)cc1OC` [Compound 3, N-[3-(3,4-dimethoxyphenyl)imidazo[1,2-a]pyrazine-8-yl]-4-methyl-benzenesulfonamide], the IC50 was 144 ± 14 µM.
On the same count and under the same terms, as for `Cc1ccc(S(=O)(=O)Nc2nccn3cc(-c4ccccc4Oc4ccccc4)nc23)cc1` [Compound 8, 4-methyl-N-[2-(2-phenoxyphenyl)imidazo[1,2-a]pyrazine-8-yl]benzenesulfonamide], the figure is 82 ± 14 µM; as for `Cc1ccc(S(=O)(=O)Nc2nccn3cc(-c4cc(C)cc(C)c4)nc23)cc1` [Compound 10, N-[2-(3,5-dimethylphenyl)imidazo[1,2-a]pyrazine-8-yl]-4-methylbenzenesulfonamide], 133 ± 16 µM; as for `Cc1ccc(S(=O)(=O)Nc2nccn3c(-c4cc(C)cc(C)c4)cnc23)cc1` [Compound 4], 154 ± 22 µM.
Same read-out and setting: as for `Cc1ccc(S(=O)(=O)Nc2ccc(Nc3nccn4c(-c5ccc6ccccc6c5)cnc34)cc2)cc1` [Compound 5, 4-methyl-N-[4-[3-(2-naphthyl)imidazo[1,2-a]pyrazine-8-yl]aminophenyl]benzenesulfonamide], the figure is 20 ± 3 µM.
Still for that read-out and setting: as for `Cc1ccc(S(=O)(=O)Nc2nccn3cc(-c4ccc5ccccc5c4)nc23)cc1` [Compound 7, 4-methyl-N-[2-(2-naphthyl)imidazo[1,2-a]pyrazine-8-yl]benzenesulfonamide], the figure is 88 ± 14 µM.
In the case of `Cc1ccc(S(=O)(=O)Nc2ccc(Nc3nccn4cc(-c5ccc6ccccc6c5)nc34)cc2)cc1` [Compound 11, 4-methyl-N-[4-[[2-(2-naphthyl)imidazo[1,2-a]pyrazine-8-yl]amino]phenyl]benzenesulfonamide], the IC50 was 6 ± 1 µM.
On the same count and under the same terms, as for `Cc1ccc(S(=O)(=O)Nc2nccn3c(-c4ccccc4Oc4ccccc4)cnc23)cc1` [Compound 2], the figure is 96 ± 42 µM; as for `Cc1ccc(S(=O)(=O)Nc2ccc(Nc3nccn4cc(-c5ccccc5Oc5ccccc5)nc34)cc2)cc1` [Compound 13, 4-Methyl-N-(4-(2-(2-phenoxyphenyl)imidazo[1,2-a]pyrazin-8-ylamino)phenyl)benzenesulfonamide], 18 ± 4 µM; as for `Cc1ccc(S(=O)(=O)Nc2ccc(CNc3nccn4cc(-c5ccc6ccccc6c5)nc34)cc2)cc1` [Compound 29, 4-Methyl-N-(4-((2-(naphthalen-2-yl)imidazo[1,2-a]pyrazin-8-ylamino)methyl)phenyl)benzenesulfonamide], 75 ± 35 µM.
As for `c1cncc(-c2cccc(Nc3nccn4cc(-c5ccc6ccccc6c5)nc34)c2)c1` [Compound 32, 2-(Naphthalen-2-yl)-N-(3-(pyridin-3-yl)phenyl)imidazo[1,2-a]pyrazin-8-amine], the IC50 is 4 ± 1 µM.
For the compound `Cc1ccc(S(=O)(=O)Nc2ccc(Nc3nccn4c(-c5ccsc5)cnc34)cc2)cc1` [Compound 6, 4-methyl-N-[4-[[3-(3-thienyl)imidazo[1,2-a]pyrazine-8-yl]amino]phenyl]benzenesulfonamide], the IC50 was 48 ± 7 µM.
On the same count and under the same terms, as for `Cc1ccc(S(=O)(=O)NCCNc2nccn3cc(-c4ccc5ccccc5c4)nc23)cc1` [Compound 31, 4-Methyl-N-(2-(2-(naphthalen-2-yl)imidazo[1,2-a]pyrazin-8-ylamino)ethyl)benzenesulfonamide], the figure is 7 ± 2 µM; as for `Cc1ccc(S(=O)(=O)Nc2ccc(Nc3nccn4cc(-c5cnc6ccccc6n5)nc34)cc2)cc1` [Compound 36, 4-Methyl-N-(4-(2-(quinoxalin-2-yl)imidazo[1,2-a]pyrazin-8-ylamino)phenyl)benzenesulfonamide], 28 ± 6 µM.
With `Cc1ccc(S(=O)(=O)Nc2ccc(Nc3nccn4cc(-c5ccsc5)nc34)cc2)cc1` [Compound 12, 4-methyl-N-[4-[[2-(3-thienyl)imidazo[1,2-a]pyrazine-8-yl]amino]phenyl]benzenesulfonamide], the IC50 is 99 ± 18 µM.
On the same count and under the same terms, for `Nc1ccc(Nc2nccn3cc(-c4ccc5ccccc5c4)nc23)cc1` [Compound 26, N^’-(2-(Naphthalen-2-yl)imidazo[1,2-a]pyrazin-8-yl)benzene-1,4-diamine] the value was 18 ± 5 µM; for `Cc1ccc(S(=O)(=O)NCCCNc2nccn3cc(-c4ccc5ccccc5c4)nc23)cc1` [Compound 30, 4-Methyl-N-(3-(2-(naphthalen-2-yl)imidazo[1,2-a]pyrazin-8-ylamino)propyl)benzenesulfonamide], 58 ± 38 µM.

The test is the same for the next values; noted with them: 125 μM ATP, 0.053 μM HP0525, 5% DMSO, pH 7.5, 30 min at 37 °C, triplicate; read-out: IC50.
With “N-(2-((6-Bromo-2-(naphthalen-2-yl)imidazo[1,2-a]pyrazin-8-yl)amino)ethyl)-4- methylbenzenesulfonamide [Compound 38]”, the IC50 was 77 ± 20 µM.
Same read-out and setting: for “4-methyl-N-[2-(2-naphthyl)imidazo[1,2-a]pyrazine-8-yl]benzenesulfonamide [Compound 1]” the value was 77 ± 16 µM.
As to “N-(4-((6-Bromo-2-(naphthalen-2-yl)imidazo[1,2-a]pyrazin-8-yl)amino)phenyl)-4- methylbenzenesulfonamide [Compound 37]”, the 50% inhibitory concentration (IC50) is 6 ± 2 µM.

Staying with this test, now noted: ATPase assay.
Turning to `Nc1nccn2cc(-c3ccc4ccccc4c3)nc12` [Compound 25, 2-(Naphthalen-2-yl)imidazo[1,2-a]pyrazin-8-amine], the “inhibitory activity in words” value is “complete loss of activity”.
On the same count and under the same terms, for `Cc1ccc(S(=O)(=O)Nc2ccc(Nc3nccn4ccnc34)cc2)cc1` [Compound 35, N-(4-(Imidazo[1,2-a]pyrazin-8-ylamino)phenyl)-4-methylbenzenesulfonamide] the value was “complete loss of activity”.

A further test addresses T1, VirB11 ATPase HP0525. The experiment in a line: steady-state (Michaelis–Menten / Lineweaver–Burk) kinetics, mode of inhibition. Type of test: biochemical. The following applies: ATP 0 to 500 μM, with and without 10 μM of compound. The procedure: as §1, §2
As for `Cc1ccc(S(=O)(=O)Nc2ccc(Nc3nccn4cc(-c5ccc6ccccc6c5)nc34)cc2)cc1` [Compound 11, 4-methyl-N-[4-[[2-(2-naphthyl)imidazo[1,2-a]pyrazine-8-yl]amino]phenyl]benzenesulfonamide], the mode of inhibition entry was “competitive inhibitor”.
